Test results published in US20100151039A1, “SKIN MOISTURIZING AGENT FOR ORAL INTAKE AND FUNCTIONAL FOODS AND DRINKS” (CALPIS CO., LTD., priority 2003, published 2010).

Tests used:
[1] = test system: serine palmitoyl transferase (SPT) mRNA; experiment: Ability to promote synthesis of SPT: RT-PCR of SPT mRNA in normal human epidermic cells; conditions: 0.63 v/v % in medium, 24 hours; relative value, control = 100, standardized to cyclophilin mRNA
Procedure: (§1) A 35 mm culture dish was seeded with the epidermic cells at a cell concentration of 5×10^5 cells per dish, and subjected to culture for 24 hours.
(§2) (2) After the culture, the cells were washed with PBS (−), and lysed with 500 μl, per dish of TRIzol reagent (trade name, manufactured by Gibco BRL). 100 μL per dish of chloroform was added and mixed thoroughly. The supernatant aqueous phase was recovered by centrifugation, and RNAs were precipitated with 2-propanol to obtain the total RNAs. The obtained total RNAs were washed with 75% cold ethanol, and dissolved in diethyl pyrocarbonate (DEPC)-treated water.
(§3) (3) 1 μg of the RNAs dissolved in DEPC-treated water was subjected to RT-PCR using One step RT-PCR kit (trade name, manufactured by Qiagen) in accordance with its protocol under the conditions and with the primers shown in Table 2, to reverse transcript and amplify the cDNA corresponding to serine palmitoyl transferase (SPT) mRNA, filaggrin mRNA, or cyclophilin RNA.
(§4) (4) After the reaction, the reaction product was fractionated by 1% agarose gel electrophoresis. The electrophoresis gel was stained with ethidium bromide, and photographed under UV irradiation on a transilluminator, to determine the band intensity.
The test was conducted twice.

[2] = test system: filaggrin mRNA; experiment: Ability to promote synthesis of filaggrin: RT-PCR of filaggrin mRNA in normal human epidermic cells; conditions: 0.63 v/v % in medium, 24 hours; relative value, control = 100, standardized to cyclophilin mRNA
Procedure: as §1, §2, §3, §4
The test was conducted twice.

For `CC(O)C(=O)O` (stereo not shown) [lactic acid], the “Effect on expression of SPT mRNA of normal human epidermic cells, 1st Test” value [1] was 91, the “Effect on expression of SPT mRNA of normal human epidermic cells, 2nd Test” value [1] was 111 and the “Effect on expression of filaggrin mRNA of normal epidermic cells, 1st Test” value [2] was 15. The “Effect on expression of filaggrin mRNA of normal epidermic cells, 2nd Test” value [2] was 132.
